Assay results from article PMC10824666 (Nature Cancer, 2023).
Where two headings read alike, the source gives them in different places. Values belong to the molecule of their own block, whether it stands above or below them.

Legend:
Assay in all cases: biochemical
Parameters in all cases: Eurofins DiscoverX kinase panel, competitive binding assay at 1 uM, percent of DMSO control
Settings in all cases: competitive binding, percent of DMSO control
PKB α = target: T1, PKB α (Homo sapiens, UniProt P31749)
T1 construct: gene AKT1
T1 sequence (P31749 whole entry): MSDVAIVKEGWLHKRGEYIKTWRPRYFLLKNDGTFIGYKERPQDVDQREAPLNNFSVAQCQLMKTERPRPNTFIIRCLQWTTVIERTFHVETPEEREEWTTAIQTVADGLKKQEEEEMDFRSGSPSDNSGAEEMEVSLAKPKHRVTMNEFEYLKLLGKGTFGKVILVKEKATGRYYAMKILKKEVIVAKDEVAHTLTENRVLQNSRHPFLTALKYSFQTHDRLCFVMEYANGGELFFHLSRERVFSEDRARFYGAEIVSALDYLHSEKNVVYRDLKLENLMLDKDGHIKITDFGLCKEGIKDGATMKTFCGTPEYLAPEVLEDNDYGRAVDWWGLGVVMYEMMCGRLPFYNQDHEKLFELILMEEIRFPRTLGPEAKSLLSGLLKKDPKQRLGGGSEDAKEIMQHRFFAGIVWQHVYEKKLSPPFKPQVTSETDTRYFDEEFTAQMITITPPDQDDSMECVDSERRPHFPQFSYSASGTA
Method in brief: (§1)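 Single-point profiling at 1 µM compound in a competition-binding format against 96 kinases, read out as POC relative to control; n = 1.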

GAK = target: T2, GAK (Homo sapiens, UniProt O14976)
T2 sequence (O14976 1-1311): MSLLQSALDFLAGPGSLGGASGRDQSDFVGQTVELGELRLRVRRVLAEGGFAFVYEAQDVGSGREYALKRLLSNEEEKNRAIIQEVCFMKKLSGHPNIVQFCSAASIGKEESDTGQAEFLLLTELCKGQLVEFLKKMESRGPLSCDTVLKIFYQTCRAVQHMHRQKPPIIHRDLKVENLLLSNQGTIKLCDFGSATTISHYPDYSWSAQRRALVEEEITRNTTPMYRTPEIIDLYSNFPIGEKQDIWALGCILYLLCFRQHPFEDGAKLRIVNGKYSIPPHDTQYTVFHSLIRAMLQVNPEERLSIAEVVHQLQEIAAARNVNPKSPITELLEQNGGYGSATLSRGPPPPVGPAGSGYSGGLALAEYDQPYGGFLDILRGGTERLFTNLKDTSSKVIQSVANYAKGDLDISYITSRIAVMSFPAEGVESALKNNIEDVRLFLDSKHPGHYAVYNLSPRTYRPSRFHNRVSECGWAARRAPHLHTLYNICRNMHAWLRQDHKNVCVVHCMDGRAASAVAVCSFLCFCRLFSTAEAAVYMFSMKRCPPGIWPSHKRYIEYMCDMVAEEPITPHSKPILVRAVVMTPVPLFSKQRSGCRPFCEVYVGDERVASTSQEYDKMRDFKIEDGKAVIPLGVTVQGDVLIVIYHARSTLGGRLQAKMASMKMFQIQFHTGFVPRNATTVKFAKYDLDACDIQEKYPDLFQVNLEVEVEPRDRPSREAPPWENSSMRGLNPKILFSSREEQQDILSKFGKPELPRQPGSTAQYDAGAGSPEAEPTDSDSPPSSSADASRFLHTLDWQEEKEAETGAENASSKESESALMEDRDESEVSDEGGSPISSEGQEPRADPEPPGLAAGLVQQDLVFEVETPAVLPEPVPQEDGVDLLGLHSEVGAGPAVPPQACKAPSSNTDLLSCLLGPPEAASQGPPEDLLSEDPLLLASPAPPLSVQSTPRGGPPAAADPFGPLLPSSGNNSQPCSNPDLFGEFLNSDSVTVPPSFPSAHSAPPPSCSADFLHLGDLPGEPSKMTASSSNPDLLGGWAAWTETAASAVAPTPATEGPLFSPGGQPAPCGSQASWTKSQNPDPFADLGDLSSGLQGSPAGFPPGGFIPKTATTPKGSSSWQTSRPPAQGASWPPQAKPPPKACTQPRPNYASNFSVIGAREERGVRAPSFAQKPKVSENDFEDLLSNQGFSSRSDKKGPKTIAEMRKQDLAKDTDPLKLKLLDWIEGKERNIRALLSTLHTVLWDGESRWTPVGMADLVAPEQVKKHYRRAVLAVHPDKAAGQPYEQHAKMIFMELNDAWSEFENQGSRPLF
Method in brief: as §1

NEK4 = NEK4 (Homo sapiens, UniProt P51957)
Chain of NEK4 (P51957 whole entry): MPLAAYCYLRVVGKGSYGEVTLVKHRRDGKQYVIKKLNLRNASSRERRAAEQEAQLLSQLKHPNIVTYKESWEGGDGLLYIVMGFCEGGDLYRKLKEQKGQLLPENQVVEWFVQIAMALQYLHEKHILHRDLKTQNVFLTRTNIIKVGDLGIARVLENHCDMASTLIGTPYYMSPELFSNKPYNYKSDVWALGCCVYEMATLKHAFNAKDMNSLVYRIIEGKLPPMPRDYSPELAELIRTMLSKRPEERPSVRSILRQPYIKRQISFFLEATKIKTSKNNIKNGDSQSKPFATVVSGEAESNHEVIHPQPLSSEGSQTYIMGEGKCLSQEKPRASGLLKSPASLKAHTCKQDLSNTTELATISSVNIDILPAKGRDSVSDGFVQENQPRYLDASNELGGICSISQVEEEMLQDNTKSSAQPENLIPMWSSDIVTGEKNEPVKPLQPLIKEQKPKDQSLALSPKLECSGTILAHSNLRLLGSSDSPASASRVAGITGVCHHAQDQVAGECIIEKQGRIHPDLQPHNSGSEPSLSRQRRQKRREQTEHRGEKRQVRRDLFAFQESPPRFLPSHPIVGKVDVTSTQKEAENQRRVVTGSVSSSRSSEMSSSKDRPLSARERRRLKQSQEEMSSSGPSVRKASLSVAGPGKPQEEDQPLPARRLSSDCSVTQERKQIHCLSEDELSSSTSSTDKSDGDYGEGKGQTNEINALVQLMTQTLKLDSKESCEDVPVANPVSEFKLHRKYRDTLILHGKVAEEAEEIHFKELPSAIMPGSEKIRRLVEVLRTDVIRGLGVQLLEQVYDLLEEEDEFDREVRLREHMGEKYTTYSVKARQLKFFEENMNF
Method in brief: as §1

MAP4K1 = MAP4K1 (Homo sapiens, UniProt Q92918)
Chain of MAP4K1 (Q92918 whole entry): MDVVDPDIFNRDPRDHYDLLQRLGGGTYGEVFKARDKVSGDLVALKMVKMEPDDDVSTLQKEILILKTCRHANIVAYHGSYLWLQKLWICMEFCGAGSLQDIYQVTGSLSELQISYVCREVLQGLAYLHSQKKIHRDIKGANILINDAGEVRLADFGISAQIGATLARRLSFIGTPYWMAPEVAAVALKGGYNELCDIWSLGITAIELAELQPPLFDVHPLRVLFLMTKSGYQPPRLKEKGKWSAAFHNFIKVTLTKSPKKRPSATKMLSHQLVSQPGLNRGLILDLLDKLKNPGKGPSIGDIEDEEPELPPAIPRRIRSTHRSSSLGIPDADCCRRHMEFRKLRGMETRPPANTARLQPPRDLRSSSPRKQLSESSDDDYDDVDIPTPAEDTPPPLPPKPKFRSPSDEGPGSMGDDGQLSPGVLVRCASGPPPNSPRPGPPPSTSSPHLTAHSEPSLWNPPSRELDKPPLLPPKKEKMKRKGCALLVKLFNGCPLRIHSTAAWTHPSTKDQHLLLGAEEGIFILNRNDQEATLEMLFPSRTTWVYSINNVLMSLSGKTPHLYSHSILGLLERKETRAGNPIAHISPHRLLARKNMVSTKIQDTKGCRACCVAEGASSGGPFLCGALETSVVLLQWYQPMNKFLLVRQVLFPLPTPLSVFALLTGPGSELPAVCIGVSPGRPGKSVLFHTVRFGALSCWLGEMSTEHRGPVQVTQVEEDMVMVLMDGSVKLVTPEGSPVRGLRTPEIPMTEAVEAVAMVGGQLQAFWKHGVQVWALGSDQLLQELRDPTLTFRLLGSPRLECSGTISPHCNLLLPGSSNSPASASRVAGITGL
Method in brief: as §1

[1] = read-out: Kinome Profiling performed by Eurofins DiscoverX / AM-1882, 1.0 µM / POC
[2] = read-out: Kinome Profiling performed by Eurofins DiscoverX / AM-5308, 1.0 µM / POC
[3] = read-out: Kinome Profiling performed by Eurofins DiscoverX / AM-0277, 1.0 µM / POC

remaining activity at 1 µM (PKB α; [1]): 100% | remaining activity at 1 µM (GAK; [1]): 99.5% | remaining activity at 1 µM (NEK4; [1]): 89% | remaining activity at 1 µM (MAP4K1; [1]): 90%
Compound: CC(C)(C)NS(=O)(=O)c1cccc(NC(=O)c2ccc(S(=O)(=O)NC(C)(C)C)cc2N2CCC3(CC2)CC3)c1 [AM-1882]

remaining activity at 1 µM (PKB α; [2]): 100% | remaining activity at 1 µM (GAK; [2]): 86% | remaining activity at 1 µM (NEK4; [2]): 100% | remaining activity at 1 µM (MAP4K1; [2]): 98.5%
Compound: C[C@@H]1CN(c2cccc(NC(=O)c3ccc(NS(=O)(=O)CCO)cc3N3CCC4(CC3)CC4)n2)CCO1 [AM-5308]

remaining activity at 1 µM (PKB α; [3]): 94% | remaining activity at 1 µM (GAK; [3]): 100% | remaining activity at 1 µM (NEK4; [3]): 100% | remaining activity at 1 µM (MAP4K1; [3]): 88%
Compound: CC(C)(CO)Nc1ccc(C(=O)Nc2cccc(S(=O)(=O)C3CCCC3)c2)c(N2CCC3(CC2)CC3)n1 [AM-0277]
